Values quoted from earlier work in US11398630B2, “Method of generating energy from a hydrazide containing anode fuel, and fuel cell” (priority 2019, dated 2022).
Like-named read-outs stand apart in the source and are kept apart here.

Key:
[1] = ambient conditions

SMILES | Toxicity-LD50 oral rat (rat; oral, rat) | further results
B [Borohydride] | 160 mg/kg | 
NNC(=O)NN [Carbohydrazide, carbohydrazide] | >5,000 mg/kg | miscibility with water [1]: ^aUnder ambient conditions, carbohydrazide is a solid, but it is completely miscible with water.; toxicity in words (rat; compared with hydrazine): nontoxic; LD50 (rat; rat, printed as mg/kg-rat, route not given): > 5,000 mg/kg
COC [Dimethyl ether] | >5,000 mg/kg | 
CCO [Ethanol] |  | Toxicity-LD50 oral rat (rat; rat, in vivo, po): >5,000 mg/kg
OCC(O)CO [Glycerol] | >5,000 mg/kg | 
CO [Methanol] | >5,000 mg/kg | 
